These results are taken from ChEMBL document CHEMBL2417531, “The discovery of inhibitors of Fas-mediated cell death pathway using the combined computational method” (Bioorg Med Chem Lett, 2013).

The structures appear in SMILES notation.

For this assay, the target named is T1, Tumor necrosis factor receptor superfamily member 6 (Rattus norvegicus) (UniProt Q63199).
T1 sequence (whole entry): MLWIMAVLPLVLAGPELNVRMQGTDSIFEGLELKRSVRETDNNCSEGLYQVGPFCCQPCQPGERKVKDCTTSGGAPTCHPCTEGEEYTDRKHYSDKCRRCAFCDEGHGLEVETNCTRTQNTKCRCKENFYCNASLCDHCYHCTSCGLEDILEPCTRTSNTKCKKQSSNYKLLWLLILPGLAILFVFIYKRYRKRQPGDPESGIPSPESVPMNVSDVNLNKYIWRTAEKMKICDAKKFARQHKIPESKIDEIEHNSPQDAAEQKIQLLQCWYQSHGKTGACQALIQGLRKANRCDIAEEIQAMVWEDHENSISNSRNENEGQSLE
Nature of the assay: Inhibition of Fas-mediated cell death in oxygen and glucose deprived rat H9c2 cells at 10 uM treated 30 mins before oxygen and glucose deprivation measured after 6 hrs by DAPI staining. It is filed as cell-based.
A word on the inhibition: it is the change of the read-out against control, counted positive when it falls. The low end stands for a weak effect, the high end for a strong effect. `COC(=O)c1ccc(Cl)cc1NC(=O)CCSc1ccccn1` returned an inhibition of 12.8%.
In turn, `COC(=O)c1oc2ccccc2c1NC(=O)CSc1ccc(Br)cc1` showed an inhibition of 7.57%.
The compound `COc1cc(C(=O)O)c(NC(=O)CCSc2ccccn2)c(OC)c1OC` yielded an inhibition of 28.6%.
In turn, `COC(=O)c1c(NC(=O)CSc2cccc(OC)c2)cnn1CCc1ccccc1` yielded an inhibition of 4.17%.
In turn, `COC(=O)c1sccc1NC(=O)CSc1cccc(OC)c1` returned an inhibition of 6.18%.
For the compound `COC(=O)c1cc(Br)cc(Br)c1NC(=O)CCSc1ccccn1`, the inhibition was 11.4%.
In turn, `COC(=O)c1cc(OC)c(OC)c(OC)c1NC(=O)CCSc1ccccn1` came in with an inhibition of 13.5%.
Consider `COC(=O)c1sccc1NC(=O)CCSc1ccc(Br)cc1`, for which the inhibition was 16.9%.
In the case of `COC(=O)c1ccsc1NC(=O)CCSc1ccc(Br)cc1`, the inhibition is 6.45%.
Consider `COC(=O)c1sccc1NC(=O)CCSc1ccccc1`, for which the inhibition worked out at 5.24%.
As to `COC(=O)c1sccc1NC(=O)CSc1ccc(Br)cc1`, the inhibition amounted to 4%.
`COC(=O)c1oc2cccc(Cl)c2c1NC(=O)CSc1ccccn1` registered an inhibition of 7.33%.
In turn, `COC(=O)c1sccc1NC(=O)CSc1ccccc1` showed an inhibition of 9.48%.
In the case of `COC(=O)c1oc2cccc(Cl)c2c1NC(=O)CSc1ccc(Br)cc1`, the inhibition came to 14.7%.
The compound `COC(=O)c1ccsc1NC(=O)CSc1ccc(Br)cc1` yielded an inhibition of 9%.
In the case of `COC(=O)c1nn(CCc2ccccc2)cc1NC(=O)COc1ccc(Br)cc1`, the inhibition stood at 2.97%.
The compound `COC(=O)c1sc2ccccc2c1NC(=O)CCSc1ccc(Br)cc1` yielded an inhibition of 8.57%.
Compound `COC(=O)c1sccc1NC(=O)CSc1ccc(OC)cc1` displayed an inhibition of 10.8%.
Next, `COC(=O)c1ccccc1NC(=O)CSc1ccccn1`: 7.9%; `COC(=O)c1cc(Br)cc(Br)c1NC(=O)C(Sc1ccc(Br)cc1)c1ccccc1` (stereo not given): 21.3%.
`COC(=O)c1ccc(Cl)cc1NC(=O)CSc1ccc(Br)cc1` had an inhibition of 12%.
Turning to `O=C(CSc1ccc(Br)cc1)Nc1c(C(=O)O)oc2ccccc12`, the inhibition amounted to 8.47%.
With `CN(C)C(=O)c1sccc1NC(=O)CSc1ccc(Br)cc1`, the inhibition came to 10.4%.
As for `COC(=O)c1sccc1NC(=O)COc1ccc(Br)cc1`, the figure is 10.8%; as for `O=C(CSc1ccc(Br)cc1)Nc1ccccc1C(=O)O`, 30.9%; as for `COC(=O)c1nn(CCc2ccccc2)cc1NC(=O)CCc1ccccc1`, 3.99%.
In turn, `COC(=O)c1sc2ccccc2c1NC(=O)CSc1ccccc1` had an inhibition of 7.94%.
As for `COC(=O)c1ccsc1NC(=O)CSc1ccccc1`, the figure is 8.38%; as for `COC(=O)c1sc2ncccc2c1NC(=O)CCSc1ccccn1`, 4.95%.
As for `Cc1csc(C(=O)O)c1NC(=O)CSc1ccc(Br)cc1`, the figure is 14.3%; as for `COC(=O)c1c(NC(=O)CSc2ccc(Br)cc2)cnn1CCc1ccccc1`, 5.41%; as for `COC(=O)c1c(NC(=O)CSc2ccc([N+](=O)[O-])cc2)cnn1CCc1ccccc1`, 4.5%.
`COC(=O)c1sccc1NC(=O)CN(C)c1ccccc1` came in with an inhibition of 7.57%.
The compound `O=C(O)c1cc(Cl)ccc1NC(=O)C(Sc1ccc(Br)cc1)c1ccccc1` (stereo not given) came in with an inhibition of 27.4%.
The compound `COC(=O)c1ccccc1NC(=O)CSc1ccccc1` displayed an inhibition of 6.05%.
Regarding `COC(=O)c1cc(OC)c(OC)cc1NC(=O)CCSc1ccccn1`, the inhibition was 17.5%.
Regarding `O=C(CSc1ccc(Br)cc1)Nc1c(Br)cc(Br)cc1C(=O)O`, the inhibition amounted to 16.1%.
As for `COc1cc(NC(=O)CSc2ccc(Br)cc2)c(C2=NCCO2)cc1OC`, the inhibition was found to be 11.9%.
`COC(=O)c1c(NC(=O)CSc2ccccc2N)cnn1CCc1ccccc1` came in with an inhibition of 5.4%.
As for `O=C(CCSc1ccccn1)Nc1cc(Cl)ccc1C1=NCCO1`, the inhibition was 23.2%.
